Test results published in article PMC3361267 (Journal of Medicinal Chemistry, 2012).

Legend:
[1] = biological target: T1, OATP1B3 (Homo sapiens, UniProt Q9NPD5)
T1 sequence (Q9NPD5 1-702): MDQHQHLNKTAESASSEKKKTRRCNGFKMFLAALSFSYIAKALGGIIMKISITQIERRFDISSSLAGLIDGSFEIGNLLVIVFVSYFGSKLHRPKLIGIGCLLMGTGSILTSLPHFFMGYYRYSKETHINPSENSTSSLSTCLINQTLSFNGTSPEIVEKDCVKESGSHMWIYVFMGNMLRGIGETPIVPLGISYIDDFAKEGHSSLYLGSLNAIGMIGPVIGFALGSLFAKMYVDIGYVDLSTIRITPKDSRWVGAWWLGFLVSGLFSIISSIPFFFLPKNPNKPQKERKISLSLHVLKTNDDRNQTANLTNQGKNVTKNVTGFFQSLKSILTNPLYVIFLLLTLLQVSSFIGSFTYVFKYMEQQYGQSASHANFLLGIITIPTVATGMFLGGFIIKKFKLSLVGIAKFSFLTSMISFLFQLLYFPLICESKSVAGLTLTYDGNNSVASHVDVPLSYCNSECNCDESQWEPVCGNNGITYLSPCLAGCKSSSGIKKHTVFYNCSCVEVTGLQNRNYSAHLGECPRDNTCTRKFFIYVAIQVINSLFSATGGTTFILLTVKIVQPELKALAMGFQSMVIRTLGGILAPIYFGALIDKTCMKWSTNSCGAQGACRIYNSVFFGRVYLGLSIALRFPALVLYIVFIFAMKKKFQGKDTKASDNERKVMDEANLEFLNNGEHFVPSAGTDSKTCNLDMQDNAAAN

[2] = biological target: T2, OATP1B1 (Homo sapiens, UniProt Q9Y6L6); assay: Transport kinetics of substrate uptake in OATP1B1-HEK293 cells; type: cell-based; conditions: OATP1B1 mediated uptake
T2 sequence (Q9Y6L6 1-691): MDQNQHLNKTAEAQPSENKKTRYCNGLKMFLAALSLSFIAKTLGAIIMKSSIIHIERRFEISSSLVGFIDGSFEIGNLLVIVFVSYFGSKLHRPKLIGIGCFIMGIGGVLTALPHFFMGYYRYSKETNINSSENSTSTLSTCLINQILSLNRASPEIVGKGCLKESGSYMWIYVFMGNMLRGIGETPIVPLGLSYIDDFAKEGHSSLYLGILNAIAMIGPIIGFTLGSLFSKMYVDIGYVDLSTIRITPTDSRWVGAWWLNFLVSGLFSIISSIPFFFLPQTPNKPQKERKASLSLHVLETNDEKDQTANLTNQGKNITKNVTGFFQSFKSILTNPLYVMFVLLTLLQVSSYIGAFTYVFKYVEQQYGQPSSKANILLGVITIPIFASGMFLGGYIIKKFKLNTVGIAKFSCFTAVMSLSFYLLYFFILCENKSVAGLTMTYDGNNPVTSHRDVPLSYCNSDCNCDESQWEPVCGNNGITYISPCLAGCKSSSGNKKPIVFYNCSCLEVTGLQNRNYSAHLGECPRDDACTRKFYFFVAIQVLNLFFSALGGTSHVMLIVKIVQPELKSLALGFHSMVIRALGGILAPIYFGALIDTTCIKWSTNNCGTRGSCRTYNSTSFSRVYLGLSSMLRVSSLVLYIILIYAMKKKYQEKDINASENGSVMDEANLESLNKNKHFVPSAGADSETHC

[3] = cited from earlier work

Row | Compound | Vmax/Km [1] [μL/mg protein/min] | Km [2] [µM] | Vmax [2] [pmol/mg protein/min] | increase of atorvastatin AUC [3] [fold]
1 | C[C@]12CC[C@@H]3c4ccc(O)cc4CC[C@H]3[C@@H]1CC[C@@H]2O[C@@H]1O[C@H](C(=O)O)[C@@H](O)[C@H](O)[C@H]1O [estradiol-17β-glucuronide] | 0.86 | 12.2 ± 5.94 | 15.44 ± 3.44 | 
2 | CC[C@H]1OC(=O)[C@H](C)[C@@H](O[C@H]2C[C@@](C)(OC)[C@@H](O)[C@H](C)O2)[C@H](C)[C@@H](O[C@@H]2O[C@H](C)C[C@H](N(C)C)[C@H]2O)[C@](C)(OC)C[C@@H](C)C(=O)[C@H](C)[C@@H](O)[C@]1(C)O [clarithromycin, Clarithromycin] |  |  |  | 4.5
